# Like-named read-outs stand apart in the source and are kept apart here.
# Assays:
# NMRI mice [1] = experiment: Mouse formalin test (second phase, licking/biting time); assay type: in vivo; details: 15 min before formalin, licking time 20-25 min after formalin; for ED50: Mus musculus, po; for ED50 in mouse formalin test: p.o.
# Method: Injection of diluted formalin into the hind paw of rats or mice is known to elicit a biphasic pain-related behavior measured as time spent by licking/biting of the injured paw. The second phase is generally defined as pain related events detected in the 15-60 min. time interval after formalin injection. It is known that NMDA receptors are involved in the second phase of response to formalin injection and this behavioral response is sensitive to blockade of NMDA receptors [Dickenson, A. and Besson J.-M. (Editors): Chapter 1, pp. 6-7: Animal models of Analgesia; and Chapter 8, pp. 180-183: Mechanism of Central Hypersensitivity: Excitatory Amino Acid Mechanisms and Their Control—In Pharmacology of Pain. Springer-Verlag (Berlin) 1997.] Therefore, we used the second phase of formalin test to characterize the efficacy of compounds in vivo. Inhibition of the second phase of response is considered to indicate an analgesic effect against chemically-induced persistent pain [Hunskaar, S., et al.: Formalin Test in Mice, a Useful Technique for Evaluating Mild Analgesics, Journal of Neuroscience Methods, 14 (1985) 69-76.]
# Male albino NMRI mice (20-25 g) were used. Prior to the experiment any solid food was withdrawn for approx. 16 hours but the animals had free access to 20% glucose solution. The animals were allowed 1 hour acclimatization period in a glass cylinder (cc. 15 cm in diameter), then moved to an identical cylinder with a mirror placed behind to facilitate observation. The test substances were suspended in 5% tween-80 (10 ml per kg body weight). and administered orally by gavage 15 min before the formalin injection (20 μl of 1% formalin in 0.9% saline injected subcutaneously into the dorsal surface of the right hind paw). The time spent by licking and biting of the injected paw was measured from 20 to 25 min. after the formalin injection.
# NR1-3/NR2A NMDA receptor [2] = molecular target: T1, NR1-3/NR2A NMDA receptor (Homo sapiens, UniProt Q05586+Q12879); experiment: Functional NMDA antagonism, fluorimetric intracellular calcium measurement on HEK293 cells expressing NR1-3/NR2A; assay type: cell-based; set-up: NR1-3/NR2A % inhibition: dose or concentration left out as unconfirmed; details: for inhibition at 10 µM: reference compounds; for inhibition at 15 µM: NMDA evoked calcium rise
# T1 construct: expressed in transfected cells
# Method: (§1) (2003)]. […] Compounds were tested for their inhibitory action on NMDA evoked cytosolic calcium elevations in fluorescent calcium measurements. Studies were performed 48-72 h after addition of the inducing agent. Ketamine (500 μM) was also present during the induction in order to prevent cytotoxicity.
# (§2) Since NMDA receptors are known to be permeable to calcium ions upon excitation, the extent of NMDA receptor activation, and its inhibition by functional antagonists can be characterized by measuring the rise in the intracellular calcium concentration following agonist (NMDA) application onto the cells. Since there is very high sequence homology between rat and human NMDA receptors (99, 95, 97% for NR1, NR2A, and NR2B subunits, respectively), it is believed that there is little, if any, difference in their pharmacological sensitivity.
# (§3) The intracellular calcium measurements are carried out on HEK293 cells expressing NR1a and NR2B or NR2A NMDA receptor subunits. The cells are plated onto standard 96-well microplates and the cultures are maintained in an atmosphere of 95% air −5% CO2 at 37° C. until testing.
# (§4) The cells are loaded with a fluorescent Ca^2+-sensitive dye, Fluo-4/AM (2-2.5 μM) prior to testing. Loading is stopped by washing twice with the solution used also during the measurement (140 mM NaCl, 5 mM KCl, 2 mM CaCl2, 5 mM HEPES [4-(2-hydroxyethyl)-1-piperazineethane-sulfonic acid], 5 mM HEPES-Na, 20 mM glucose, 10 μM glycine, pH=7.4). Then the test compound dissolved in the above solution (90 μl/well) is added. Intracellular calcium measurements are carried out with a plate reader fluorimeter. A rise in Fluo-4-fluorescence that reflects the intracellular calcium concentration is induced by application of 200 μM NMDA. Inhibitory potency of the test compound is assessed by measuring the reduction in the calcium elevation in the presence of different concentrations of the compound.
# (§5) Inhibitory potency of a compound at a single concentration point is expressed as percent inhibition of the control NMDA response. For NR1a/NR2B expressing cells concentration-inhibition curves are produced. Sigmoidal concentration-inhibition curves are fitted over the data and IC50 values are defined as the concentration that produces half of the maximal inhibition that could be achieved with the compound. Mean IC50 values are derived from at least three independent experiments. For NR1-3/NR2A expressing cells antagonism of NMDA induced rise in intracellular calcium concentration by compounds of the present invention and reference compounds was tested at 10 and 15 microM concentration, respectively.
# NR1a/NR2B NMDA receptor = molecular target: T2, NR1a/NR2B NMDA receptor (Rattus norvegicus, UniProt P35439+Q00960); experiment: Functional NMDA antagonism, fluorimetric intracellular calcium measurement on HEK293 cells expressing NR1a/NR2B; assay type: cell-based
# T2 construct: expressed in transfected cells
# Method: Compounds were tested for their inhibitory action on NMDA evoked cytosolic calcium elevations in fluorescent calcium measurements. Studies were performed 48-72 h after addition of the inducing agent. Ketamine (500 μM) was also present during the induction in order to prevent cytotoxicity.
# Since NMDA receptors are known to be permeable to calcium ions upon excitation, the extent of NMDA receptor activation, and its inhibition by functional antagonists can be characterized by measuring the rise in the intracellular calcium concentration following agonist (NMDA) application onto the cells.
# The intracellular calcium measurements are carried out on HEK293 cells expressing NR1a and NR2B or NR2A NMDA receptor subunits.
# as §4, with “Loading” for “The cells are loaded with a fluorescent Ca^2+-sensitive dye, Fluo-4/AM (2-2.5 μM) prior to testing. Loading”
# as §5
# NMRI mice [3] = experiment: Mouse formalin test (second phase, licking/biting time); assay type: in vivo
# NR1-3/NR2A NMDA receptor [4] = molecular target: T3, NR1-3/NR2A NMDA receptor (Homo sapiens, UniProt Q12879); experiment: Functional NMDA antagonism, fluorimetric intracellular calcium measurement on HEK293 cells expressing NR1-3/NR2A; assay type: cell-based; set-up: NR1-3/NR2A % inhibition: dose or concentration left out as unconfirmed; details: reference compounds
# T3 construct: expressed in transfected cells
# Method: as §1, §2, §3, §4, §5
# [5] = HEK293 cells expressing NR1a/NR2B, reference compounds, read-out: NR1a/NR2B IC50
# [6] = HEK293 cells expressing NR1a/NR2B, 200 μM NMDA evoked calcium rise, compounds of the invention, read-out: NR1a/NR2B IC50
# T2 sequence (Q00960 27-1482, other chains not shown): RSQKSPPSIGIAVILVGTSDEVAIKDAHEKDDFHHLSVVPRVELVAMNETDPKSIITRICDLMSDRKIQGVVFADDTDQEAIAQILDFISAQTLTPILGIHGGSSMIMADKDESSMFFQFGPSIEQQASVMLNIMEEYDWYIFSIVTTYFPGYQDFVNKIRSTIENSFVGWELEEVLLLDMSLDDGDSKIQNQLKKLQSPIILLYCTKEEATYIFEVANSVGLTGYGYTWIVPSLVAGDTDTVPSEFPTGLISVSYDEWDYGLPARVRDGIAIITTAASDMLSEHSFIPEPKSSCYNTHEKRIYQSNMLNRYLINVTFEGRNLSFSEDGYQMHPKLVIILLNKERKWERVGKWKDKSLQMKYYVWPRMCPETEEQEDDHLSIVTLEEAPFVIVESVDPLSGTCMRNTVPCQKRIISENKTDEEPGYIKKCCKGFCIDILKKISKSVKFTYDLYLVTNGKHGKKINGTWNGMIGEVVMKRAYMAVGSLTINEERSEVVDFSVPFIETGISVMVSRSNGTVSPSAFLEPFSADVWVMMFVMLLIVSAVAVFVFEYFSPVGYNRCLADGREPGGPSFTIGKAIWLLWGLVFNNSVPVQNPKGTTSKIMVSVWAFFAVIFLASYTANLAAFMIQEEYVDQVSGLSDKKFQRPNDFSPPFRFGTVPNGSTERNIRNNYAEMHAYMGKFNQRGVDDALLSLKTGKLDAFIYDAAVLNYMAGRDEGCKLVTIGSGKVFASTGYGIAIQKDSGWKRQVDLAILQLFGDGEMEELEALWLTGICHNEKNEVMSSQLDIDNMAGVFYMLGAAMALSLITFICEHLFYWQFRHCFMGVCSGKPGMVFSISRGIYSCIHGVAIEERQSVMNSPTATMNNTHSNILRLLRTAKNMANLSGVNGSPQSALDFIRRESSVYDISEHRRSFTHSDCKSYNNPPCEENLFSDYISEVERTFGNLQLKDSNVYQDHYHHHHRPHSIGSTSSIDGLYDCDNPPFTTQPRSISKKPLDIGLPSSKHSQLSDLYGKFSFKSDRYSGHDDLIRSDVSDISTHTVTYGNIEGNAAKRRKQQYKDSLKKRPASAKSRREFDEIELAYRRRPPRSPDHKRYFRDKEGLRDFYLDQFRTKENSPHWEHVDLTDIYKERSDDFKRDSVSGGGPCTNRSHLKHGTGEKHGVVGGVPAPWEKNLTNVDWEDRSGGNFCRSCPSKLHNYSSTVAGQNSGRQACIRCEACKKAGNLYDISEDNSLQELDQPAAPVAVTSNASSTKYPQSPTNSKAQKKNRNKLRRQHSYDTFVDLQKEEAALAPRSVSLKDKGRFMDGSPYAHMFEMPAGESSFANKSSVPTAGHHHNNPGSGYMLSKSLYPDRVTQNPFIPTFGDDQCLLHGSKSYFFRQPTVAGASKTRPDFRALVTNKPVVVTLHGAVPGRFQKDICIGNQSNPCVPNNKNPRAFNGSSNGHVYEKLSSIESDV
# T1 sequence (Q12879 23-1464, other chains not shown): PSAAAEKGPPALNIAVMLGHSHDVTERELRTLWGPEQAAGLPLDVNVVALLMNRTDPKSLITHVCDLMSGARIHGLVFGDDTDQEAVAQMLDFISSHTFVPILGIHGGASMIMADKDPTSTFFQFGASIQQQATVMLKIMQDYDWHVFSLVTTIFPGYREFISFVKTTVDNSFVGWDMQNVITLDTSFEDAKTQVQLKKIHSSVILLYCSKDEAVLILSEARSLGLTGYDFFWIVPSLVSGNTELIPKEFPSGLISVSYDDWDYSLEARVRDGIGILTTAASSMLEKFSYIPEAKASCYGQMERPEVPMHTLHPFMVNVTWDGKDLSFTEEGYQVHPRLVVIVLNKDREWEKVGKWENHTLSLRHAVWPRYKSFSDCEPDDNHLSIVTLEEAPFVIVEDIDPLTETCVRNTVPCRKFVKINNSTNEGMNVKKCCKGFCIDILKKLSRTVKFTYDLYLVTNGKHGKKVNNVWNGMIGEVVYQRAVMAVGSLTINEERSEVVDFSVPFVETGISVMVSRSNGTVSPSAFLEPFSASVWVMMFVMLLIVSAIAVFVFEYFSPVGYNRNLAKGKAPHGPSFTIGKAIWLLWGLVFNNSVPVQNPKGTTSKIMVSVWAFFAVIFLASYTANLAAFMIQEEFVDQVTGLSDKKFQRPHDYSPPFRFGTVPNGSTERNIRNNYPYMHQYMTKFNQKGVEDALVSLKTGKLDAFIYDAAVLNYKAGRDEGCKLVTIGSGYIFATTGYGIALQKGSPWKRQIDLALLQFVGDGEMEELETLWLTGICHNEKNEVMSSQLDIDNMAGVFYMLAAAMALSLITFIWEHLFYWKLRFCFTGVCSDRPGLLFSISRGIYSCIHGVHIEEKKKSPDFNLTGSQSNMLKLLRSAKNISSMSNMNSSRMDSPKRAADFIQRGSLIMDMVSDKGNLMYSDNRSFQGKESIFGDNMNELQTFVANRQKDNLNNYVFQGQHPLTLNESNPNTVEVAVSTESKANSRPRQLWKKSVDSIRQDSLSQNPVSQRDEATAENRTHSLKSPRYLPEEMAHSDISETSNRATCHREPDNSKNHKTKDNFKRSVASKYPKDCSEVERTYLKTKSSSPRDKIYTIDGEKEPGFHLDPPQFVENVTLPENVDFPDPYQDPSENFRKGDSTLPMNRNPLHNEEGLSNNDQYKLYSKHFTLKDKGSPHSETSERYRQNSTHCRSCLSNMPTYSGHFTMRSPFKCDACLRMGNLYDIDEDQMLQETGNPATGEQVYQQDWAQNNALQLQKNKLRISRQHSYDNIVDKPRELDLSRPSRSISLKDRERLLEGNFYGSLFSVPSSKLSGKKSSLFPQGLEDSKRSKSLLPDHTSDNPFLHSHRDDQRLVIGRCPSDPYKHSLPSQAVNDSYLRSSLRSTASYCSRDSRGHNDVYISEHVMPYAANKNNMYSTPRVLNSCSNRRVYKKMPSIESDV
# T3 sequence (Q12879 23-1464, other chains not shown): as above
Compound,inhibition at 15 µM (NR1-3/NR2A NMDA receptor [2]) [%],IC50 (NR1a/NR2B NMDA receptor; [6]) [nM],ED50 (NMRI mice [1]) [mg/kg],also measured
"O=c1[nH]c2ccc([S+]([O-])CCN3CCC(Cc4ccc(F)cc4)CC3)cc2o1 (centres unmarked) [CI-1041, 6-{2-[4-(4-fluoro-benzyl)-piperidin-1-yl]-ethanesulfinyl}-3H-benzooxazol-2-one, reference compound]",,,2.4,inhibition at 10 µM (NR1-3/NR2A NMDA receptor [2]): 21%; IC50 (NR1a/NR2B NMDA receptor): 8.4 nM
"C[C@@H]([C@@H](O)c1ccc(O)cc1)N1CCC(O)(c2ccccc2)CC1 [CP 101,606, (1S,2S)-1-(4-hydroxyphenyl)-2-(4-hydroxy-4-phenylpiperidine-1-yl)-1-propanol, reference compound]",,,> 20,ED50 (NMRI mice [3]; sc): > 20 mg/kg; inhibition at 10 µM (NR1-3/NR2A NMDA receptor [2]): 2.5%
"Cc1ccc(CC2(O)CCN(CCOc3ccc(O)cc3)CC2)cc1 [Co-101244, 1-[2-(4-hydroxyphenoxy)ethyl]-4-hydroxy-4-(4-methylbenzyl)piperidine, reference compound]",,,,ED50 (NMRI mice [3]; ip): 5.9 mg/kg; ED50 in mouse formalin test (NMRI mice [1]): inactive; inhibition at 10 µM (NR1-3/NR2A NMDA receptor [2]): -8.7%; IC50 (NR1a/NR2B NMDA receptor; [5]): 4.8 nM
"Oc1ccc(OCCN2CCC(Cc3ccc(F)cc3)CC2)cc1 [Co-111103, 1-[2-(4-hydroxyphenoxy)ethyl]-4-(4-fluorobenzyl)piperidine, reference compound]",,,> 20,
"O=C(CCN1CCC(Cc2ccc(F)cc2)CC1)c1ccc2[nH]c(=O)oc2c1 [EMD 95885, reference compound]",,,,ED50 in mouse formalin test (NMRI mice [1]): 3.7 mg/kg; NR1-3/NR2A % inhibition (NR1-3/NR2A NMDA receptor [4]): 0.1%; IC50 (NR1a/NR2B NMDA receptor; [5]): 48 nM
O=C(c1cc(=O)c2cc(O)ccc2[nH]1)N1CCC(Oc2ccc(Cl)cc2)CC1 [Example 7],5.1,5.1,> 20,
"Cc1ccc(OC2CCN(C(=O)c3cc(=O)c4cc(O)ccc4[nH]3)CC2)cc1 [Example 8, 6-Hydroxy-2-(4-p-tolyloxy-piperidine-1-carbonyl)-1H-quinolin4-one]",-3.5,3.3,8.2,
"O=C(c1cc(=O)c2cc3[nH]c(=O)oc3cc2[nH]1)N1CCC(Cc2ccccc2)CC1 [Example 9, 6-(4-Benzyl-piperidine-1-carbonyl)-1,5-dihydro-oxazolo[4,5-g]quinoline-2,8-dione]",-2.1,5.6,> 20,
"O=C(c1cc(=O)c2cc(O)ccc2[nH]1)N1CCC(Oc2ccccc2)CC1 [Example 10, 6-Hydroxy-2-(4-phenoxy-piperidine-1-carbonyl)-1H-quinolin-4-one]",0.2,28,,
"CC(CN1CCC(Cc2ccccc2)CC1)C(O)c1ccc(O)cc1 (stereo not drawn) [Ro 25.6981, R—(R*,S*)-1-(4-hydroxyphenyl)-2-methyl-3-[4-(phenylmethyl)piperidin-1-yl]-1-propanol, reference compound]",,,,ED50 (NMRI mice [3]; ip): 5.1 mg/kg; ED50 in mouse formalin test (NMRI mice [1]): inactive; inhibition at 10 µM (NR1-3/NR2A NMDA receptor [2]): 1%; IC50 (NR1a/NR2B NMDA receptor): 57 nM
"CC(C(O)c1ccc(O)cc1)N1CCC(Cc2ccccc2)CC1 (stereo not drawn) [ifenprodil, erythro-2-(4-benzylpiperidino)-1-(4-hydroxyphenyl)-1-propanol, reference compound]",,,,inhibition at 10 µM (NR1-3/NR2A NMDA receptor [2]): -2.7%

# Further lines, with some results ahead:
inhibition at 15 µM (NR1-3/NR2A NMDA receptor [2]) [%],IC50 (NR1a/NR2B NMDA receptor; [6]) [nM],Compound,ED50 (NMRI mice [1]) [mg/kg],also measured
-0.9,4,"O=C(c1cc(=O)c2cc(O)ccc2[nH]1)N1CCC(Cc2ccc(F)cc2)CC1 [Example 1, 2-[4-(4-Fluoro-benzyl)-piperidine-1-carbonyl]-6-hydroxy-1H-quinolin-4-one]",9.5,
7,3.7,"O=C(c1cc(=O)c2cc(O)ccc2[nH]1)N1CCC(Cc2ccccc2)CC1 [Example 2, 2-(4-Benzyl-piperidine-1-carbonyl)-6-hydroxy-1H-quinolin-4-one]",> 20,
-2.4,3.8,"Cc1ccc(CC2CCN(C(=O)c3cc(=O)c4cc(O)ccc4[nH]3)CC2)cc1 [Example 3, 6-Hydroxy-2-[4-(4-methyl-benzyl)-piperidine-1-carbonyl]-1H-quinolin-4-one]",8.9,
-5.1,1.9,"O=C(c1cc(=O)c2cc(O)ccc2[nH]1)N1CCC(Cc2ccc(Cl)cc2)CC1 [Example 4, 2-[4-(4-Chloro-benzyl)-piperidine-1-carbonyl]-6-hydroxy-1H-quinolin-4-one]",> 20,
5.7,21.5,"O=C(c1cc(=O)c2cc(O)ccc2[nH]1)N1CCC(OCc2ccccc2)CC1 [Example 5, 2-(4-Benzyloxy-piperidine-1-carbonyl)-6-hydroxy-1H-quinolin-4-one]",,
14,8.9,"O=C(c1cc(=O)c2cc(O)ccc2[nH]1)N1CCC(COc2ccccc2)CC1 [Example 6, 6-Hydroxy-2-(4-Phenoxymethyl-piperidine-1-carbonyl)-1H-quinolin-4-one]",0.46,

# Source: US20090012118A1, “Kynurenic Acid Amide Derivatives as Nr2b Receptor Antagoni” (priority 2004, published 2009)
